Structures can show the parent of a compound that is named as a salt.
Experiments:
Details in all cases: exposure time: 72 h
E28 [1] = patient-derived glioblastoma stem cells of classical subtype; assay: phenotypic distance (Euclidean, principal components) from DMSO controls (arbitrary units); higher = stronger morphological change
E34 [2] = patient-derived glioblastoma stem cells of proneural subtype; assay: as above
FT3469 [3] = normal neural stem cell line; assay: as above
E57 [4] = patient-derived glioblastoma stem cells of mesenchymal subtype; assay: as above
E13 [5] = patient-derived glioblastoma stem cells of classical subtype; assay: as above
E31 [6] = patient-derived glioblastoma stem cells of proneural subtype; assay: as above
E21 [7] = patient-derived glioblastoma stem cells of mesenchymal subtype; assay: as above
E28 [8] = assay: surviving fraction (nuclei count normalised to DMSO); higher = more cells surviving (less toxic)
E34 [9] = assay: as above
FT3469 [10] = assay: as above
E57 [11] = assay: as above
E13 [12] = assay: as above
E31 [13] = assay: as above
E21 [14] = assay: as above
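Wherever phenotypic distance (Euclidean, principal components) from DMSO controls is given: cell Painting imaging in 384-well plates, CellProfiler features reduced to at least 20 principal components, Euclidean distance versus same-plate DMSO vehicle wells (0.1% v/v), median over six images per well.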
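Wherever surviving fraction (nuclei count normalised to DMSO) is given: nuclei counted by high-content imaging of Hoechst-stained cells in laminin-coated 384-well plates, relative to 0.1% DMSO vehicle wells, with staurosporine as cell-death control.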

OCCN1CCN(CCCN2c3ccccc3Sc3ccc(C(F)(F)F)cc32)CC1 [Fluphenazine dihydrochloride]
Details	phenotypic distance	surviving fraction
E13 [5], 4.1 nM	0.431	–
E13 [5], 12.3 nM	0.337	–
E13 [5], 37 nM	0.907	–
E13 [5], 111.1 nM	0.69	–
E13 [5], 333.3 nM	1.57	–
E13 [5], 1000 nM	1.8	–
E13 [5], 3000 nM	2.01	–
E13 [12], 4.1 nM	–	0.959
E13 [12], 12.3 nM	–	1.02
E13 [12], 37 nM	–	1
E13 [12], 111.1 nM	–	1
E13 [12], 333.3 nM	–	0.966
E13 [12], 1000 nM	–	0.816
E13 [12], 3000 nM	–	0.804
E21 [7], 4.1 nM	0.339	–
E21 [7], 12.3 nM	0.421	–
E21 [7], 37 nM	0.601	–
E21 [7], 111.1 nM	0.795	–
E21 [7], 333.3 nM	0.745	–
E21 [7], 1000 nM	0.728	–
E21 [7], 3000 nM	1.26	–
E21 [14], 4.1 nM	–	0.932
E21 [14], 12.3 nM	–	0.986
E21 [14], 37 nM	–	1.08
E21 [14], 111.1 nM	–	0.96
E21 [14], 333.3 nM	–	1.01
E21 [14], 1000 nM	–	0.989
E21 [14], 3000 nM	–	0.938
E28 [1], 4.1 nM	0.832	–
E28 [1], 12.3 nM	0.622	–
E28 [1], 37 nM	0.706	–
E28 [1], 111.1 nM	0.624	–
E28 [1], 333.3 nM	0.662	–
E28 [1], 1000 nM	0.755	–
E28 [1], 3000 nM	0.877	–
E28 [8], 4.1 nM	–	1.13
E28 [8], 12.3 nM	–	0.846
E28 [8], 37 nM	–	1.1
E28 [8], 111.1 nM	–	1.04
E28 [8], 333.3 nM	–	0.899
E28 [8], 1000 nM	–	0.923
E28 [8], 3000 nM	–	1.05
E31 [6], 4.1 nM	0.66	–
E31 [6], 12.3 nM	0.671	–
E31 [6], 37 nM	0.803	–
E31 [6], 111.1 nM	1.17	–
E31 [6], 333.3 nM	1.95	–
E31 [6], 1000 nM	2.4	–
E31 [6], 3000 nM	2.16	–
E31 [13], 4.1 nM	–	1.01
E31 [13], 12.3 nM	–	1.18
E31 [13], 37 nM	–	1.02
E31 [13], 111.1 nM	–	0.932
E31 [13], 333.3 nM	–	1.09
E31 [13], 1000 nM	–	1.22
E31 [13], 3000 nM	–	1.13
E34 [2], 4.1 nM	0.947	–
E34 [2], 12.3 nM	0.375	–
E34 [2], 37 nM	0.734	–
E34 [2], 111.1 nM	0.93	–
E34 [2], 333.3 nM	1.15	–
E34 [2], 1000 nM	0.764	–
E34 [2], 3000 nM	1.17	–
E34 [9], 4.1 nM	–	0.901
E34 [9], 12.3 nM	–	0.986
E34 [9], 37 nM	–	0.911
E34 [9], 111.1 nM	–	0.993
E34 [9], 333.3 nM	–	1.2
E34 [9], 1000 nM	–	1.05
E34 [9], 3000 nM	–	1.06
E57 [4], 4.1 nM	0.619	–
E57 [4], 12.3 nM	0.504	–
E57 [4], 37 nM	0.711	–
E57 [4], 111.1 nM	0.787	–
E57 [4], 333.3 nM	0.901	–
E57 [4], 1000 nM	0.778	–
E57 [4], 3000 nM	1.6	–
E57 [11], 4.1 nM	–	1.02
E57 [11], 12.3 nM	–	1.03
E57 [11], 37 nM	–	1.03
E57 [11], 111.1 nM	–	1
E57 [11], 333.3 nM	–	1.12
E57 [11], 1000 nM	–	1.02
E57 [11], 3000 nM	–	1.15
FT3469 [3], 4.1 nM	0.785	–
FT3469 [3], 12.3 nM	0.668	–
FT3469 [3], 37 nM	0.632	–
FT3469 [3], 111.1 nM	0.808	–
FT3469 [3], 333.3 nM	0.87	–
FT3469 [3], 1000 nM	1.41	–
FT3469 [3], 3000 nM	1.36	–
FT3469 [10], 4.1 nM	–	0.838
FT3469 [10], 12.3 nM	–	1.09
FT3469 [10], 37 nM	–	0.931
FT3469 [10], 111.1 nM	–	1
FT3469 [10], 333.3 nM	–	1.04
FT3469 [10], 1000 nM	–	0.894
FT3469 [10], 3000 nM	–	0.84

— the supplement of paper PMC13207355
